Values of other authors in patent publication US20180271836A1, “TOPICAL NON-AQUEOUS PHARMACEUTICAL FORMULATIONS CONTAINING AN ALKYL SULFOXIDE FOR THE TREATMENT OF TOPICAL REFERENCE INFECTIONS” (priority 2012, published 2018).

Structure (SMILES): Clc1ccc(COC(Cn2ccnc2)c2ccc(Cl)cc2Cl)c(Cl)c1 (stereo not shown) [miconazole]
- pKa: 6.5
